{
  "source": "patent US7741295B2",
  "about": "“Sir2 products and activities” (Albert Einstein College of Medicine of Yeshiva University, priority 2001, dated 2010)",
  "key": {"[1]": {"experiment": "Stability of authentic β-1′-AADPR (elimination as a Sir2p product)", "type": "physicochemical", "conditions": "100 μM, 40 mM phosphate buffer pH 6.25, one hr at 55° C., HPLC", "from_the_text": "Elimination of β-1′-AADPR as a Sir2p product."}, "CD38": {"test_system": "CD38", "experiment": "CD38 controls with ara-F-NAD^+ (base exchange, inhibition)", "type": "biochemical, human", "procedure": "(§1) Ara-F-NAD^+ as an NAD^+ analogue. Ara-F NAD^+ is an inhibitor of ADP-ribosyl-transferase and was used to evaluate Sir2Af2. Ara-F-NAD^+ was synthesized as previously reported^44. Deacetylation of peptide JB12 (300 μM) by Sir2Af2 (10 μg) in the presence of ara-F-NAD^+ (50 μM) was tested in 200 μL of 40 mM potassium phosphate pH 6.25. No change of ara-F-NAD^+ was detected by C-18 reverse phase HPLC. […] A control run with […] and NAD^+ established [Carbonyl-^14C]-nicotinamide exchange into NAD^+, confirming the Sir2 base-exchange reaction. […] Inhibition of Sir2Af2 by ara-F-NAD^+ was evaluated by incubation of Sir2Af2 enzyme (7 μM) and ara-F-NAD^+ (20 μM) in the presence of 300 μM JB12 peptide in potassium phosphate pH 6.25 buffer. A reaction mixture lacking ara-F NAD^+ was the control. A positive control used the same reaction components but 500 nM CD38 in the presence of 5 μM ara-F-NAD^+. Reactions were initiated after 6 h by adding 150 μM NAD^+. Reactions were evaluated for catalytic turnover using HPLC. Catalytic turnover of Sir2Af2 was not inhibited by ara-F-NAD^+ under these reaction conditions."}, "[2]": {"conditions": "cited from earlier work"}, "Sir2Af2 [3]": {"biological_target": "T1, Sir2Af2 (Archaeoglobus fulgidus, UniProt O30124)", "T1 construct": "made in house", "T1 sequence (O30124 1-253)": "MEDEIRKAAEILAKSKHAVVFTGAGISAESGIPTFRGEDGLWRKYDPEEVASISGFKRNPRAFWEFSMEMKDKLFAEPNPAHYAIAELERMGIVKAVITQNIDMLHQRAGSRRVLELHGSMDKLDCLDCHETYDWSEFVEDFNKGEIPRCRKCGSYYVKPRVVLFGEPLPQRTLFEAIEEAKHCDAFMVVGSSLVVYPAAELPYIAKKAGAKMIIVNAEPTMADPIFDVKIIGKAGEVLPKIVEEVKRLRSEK", "experiment": "Inhibition of Sir2Af2 catalytic turnover by ara-F-NAD^+ (HPLC)", "type": "biochemical", "conditions": "Sir2Af2 7 μM, ara-F-NAD^+ 20 μM, 300 μM JB12, 6 h then 150 μM NAD^+", "procedure": "as §1"}, "Sir2Af2 [4]": {"biological_target": "T1, Sir2Af2", "experiment": "Ara-F-NAD^+ as NAD^+ analogue: substrate and nicotinamide exchange reactions with Sir2Af2", "type": "biochemical", "conditions": "for [Carbonyl-^14C]-nicotinamide exchange catalysed by Sir2Af2: 5 mM nicotinamide, 300 μM peptide; for Substrate in Sir2Af2 deacetylation of peptide JB12: ara-F-NAD^+ 50 μM, JB12 300 μM, pH 6.25, C-18 HPLC", "procedure": "as §1"}, "[5]": {"test_system": "ADP-ribosyltransfer enzymes", "conditions": "cited from earlier work"}, "AfSir2": {"test_system": "AfSir2", "experiment": "Inhibition of AfSir2 by ADPR", "type": "biochemical, Archaeoglobus fulgidus"}, "Sir2": {"test_system": "Sir2", "conditions": "cited from earlier work"}, "[6]": {"experiment": "Interconversion rates of 2′- and 3′-AADPR (HPLC, NMR)", "type": "physicochemical", "procedure": "Interconversion rates of 2′- and 3′-AADPR. Sample of both 2′- and 3′-AADPR were incubated at 15° C. and analyzed by HPLC at 40 min intervals (C-18 column; 50 mM ammonium acetate pH 5.0). The percent of the 3′-isomer at a given time was fit to the equation 3′-AADPR (%)=Pa exp (−kt)+Pf where Pa+Pf=P0; where Pa is the percent of the 3′-isomer above equilibrium at time=0, t is time and k is the first order rate constant for the conversion. Pf is the percent at equilibrium and P0 is the initial percent. HPLC and NMR analysis established the 2′- and 3′-isomers concentration as a function of time. NMR was in 10% d4-methanol/90% D2O at 0° C. or in 100% D2O at 20° C."}, "Sir2Af2 [7]": {"biological_target": "T1, Sir2Af2", "experiment": "Low temperature ^1H NMR analysis of Sir2p reaction products (order of product formation)", "type": "biochemical", "conditions": "5° C.", "procedure": "Low temperature studies of Sir2Af2 to identify order of product production. Sir2Af2 catalyzed deacetylation reactions were performed at 8° C. to determine the order of product formation. A 200 μL solution containing 150 μM NAD^+, 300 μM peptide JB12, in 40 mM potassium phosphate pH 6.2 were cooled to 8° C. and then 1 μL of 9 μg/μL of Sir2Af2 was added to initiate the reaction. Reactions were assayed by HPLC using 0.5% TFA as an eluant. Peals at 17 and 20 min were used to quantitate 3′- and 2′-AADPR at 30 minute intervals.\nLow temperature ^1H NMR analysis of Sir2p reaction products. A solution of 1.7 mg Sir2Af2 enzyme in 95% D2O, 50 mM potassium phosphate pH 6.3 was concentrated to 550 μL using centrifugation filtration. This sample was mixed with 2 mg JB12 peptide and cooled to 5° C. in a 600 MHz NMR spectrometer. Spectra were obtained and 280 μL of ice-chilled 22 mM NAD^+ solution in 50 mM potassium phosphate pH 6.3 in 99% D2O was added to initiate the reaction. ^1H NMR 1D spectra were obtained at intervals over 18 hr at 5° C."}, "Sir2Af1": {"biological_target": "T2, Sir2Af1 (Archaeoglobus fulgidus, UniProt O28597)", "T2 construct": "made in house", "T2 sequence (O28597 1-245)": "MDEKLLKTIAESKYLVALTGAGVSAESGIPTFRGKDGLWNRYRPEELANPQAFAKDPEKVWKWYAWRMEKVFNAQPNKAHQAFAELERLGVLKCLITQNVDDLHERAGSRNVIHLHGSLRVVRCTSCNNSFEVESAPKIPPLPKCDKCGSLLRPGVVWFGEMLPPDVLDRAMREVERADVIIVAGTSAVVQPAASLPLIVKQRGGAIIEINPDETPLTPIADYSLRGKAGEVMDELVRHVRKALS", "conditions": "cited from earlier work"}, "esterase activity [8]": {"test_system": "esterase activity", "experiment": "Breakdown of AADPR by esterase activity in hamster ovary cell extract", "type": "in vitro ADME", "conditions": "hamster ovary cells extract", "from_the_text": "(§2) The use of AADPR or radiolabeled AADPR is a strategy to characterize and discover the esterases (or other enzymes) that break down or utilize AADPR in vivo. Specifically, AADPR breakdown can be measured by HPLC or TLC assay. When radiolabels are used, amounts of AADPR necessary for this purpose can be as small as 250 pmoles."}, "esterase activity [9]": {"test_system": "esterase activity", "experiment": "Breakdown of AADPR by esterase activity in rat liver extract", "type": "in vitro ADME", "from_the_text": "as §2"}},
  "data": [
    {"molecule": "CC(=O)O[C@@H]1O[C@H](COP(=O)(O)OP(=O)(O)OC[C@H]2O[C@@H](n3cnc4c(N)ncnc43)[C@H](O)[C@@H]2O)[C@@H](O)[C@H]1O", "note": "[β-1′-AADPR]", "values": [
      {"measurement": "Change of β-1′-AADPR and production of 2′- or 3′-AADPR on incubation", "setting": "[1]", "value": "no change"}
    ]},
    {"molecule": "NC(=O)c1ccc[n+]([C@@H]2O[C@H](COP(=O)([O-])OP(=O)(O)OC[C@H]3O[C@@H](n4cnc5c(N)ncnc54)[C@H](O)[C@@H]3O)[C@@H](O)[C@H]2F)c1", "note": "[ara-F-NAD^+]", "values": [
      {"measurement": "Activity (inactivation) on CD38 positive control", "setting": "CD38; 500 nM CD38, 5 μM ara-F-NAD^+", "value": "activity on the control using CD38"},
      {"measurement": "Base exchange with [^14C]nicotinamide catalysed by CD38", "setting": "CD38; control", "value": "full base exchange"},
      {"measurement": "Stability relative to NAD^+", "setting": "[2]", "value": "roughly 50 times"},
      {"measurement": "Inhibition of Sir2Af2 catalytic turnover", "setting": "Sir2Af2 [3]", "value": "not inhibited"},
      {"measurement": "Inhibition of Sir2Af2 catalytic turnover", "setting": "Sir2Af2 [3]; listed as Ara-F-NAD^+", "value": "did not inactivate"},
      {"measurement": "[Carbonyl-^14C]-nicotinamide exchange catalysed by Sir2Af2", "setting": "Sir2Af2 [4]", "value": "no radioactivity incorporated"},
      {"measurement": "[Carbonyl-^14C]-nicotinamide exchange catalysed by Sir2Af2", "setting": "Sir2Af2 [4]; listed as Ara-F NAD^+", "value": "did not serve as a substrate"},
      {"measurement": "Substrate in Sir2Af2 deacetylation of peptide JB12", "setting": "Sir2Af2 [4]", "value": "No change"},
      {"measurement": "Substrate in Sir2Af2 deacetylation of peptide JB12", "setting": "Sir2Af2 [4]; listed as Ara-F NAD^+", "value": "did not serve as a substrate"},
      {"measurement": "Inhibitor of ADP-ribosyltransfer enzymes", "setting": "[5]", "value": "powerful inhibitor"}
    ]},
    {"molecule": "adenosine diphosphate ribose [ADPR]", "values": [
      {"measurement": "Inhibition of AfSir2", "setting": "AfSir2", "value": "potent inhibitor"}
    ]},
    {"molecule": "NC(=O)c1cccnc1", "note": "[nicotinamide]", "values": [
      {"measurement": "Inhibition of Sir2", "setting": "Sir2", "value": "inhibits the enzyme"}
    ]},
    {"molecule": "CC(=O)O[C@H]1C(O)O[C@H](COP(=O)(O)OP(=O)(O)OC[C@H]2O[C@@H](n3cnc4c(N)ncnc43)[C@H](O)[C@@H]2O)[C@H]1O", "note": "(stereo partly drawn) [2′-AADPR, 2′-O-acetyl-ADP-ribose]", "values": [
      {"measurement": "rate of chemical exchange of the acetyl group", "setting": "[6]; 15° C.", "value": 0.45, "unit": "h⁻¹"},
      {"measurement": "α/β anomeric equilibrium rate", "setting": "[6]; NMR", "value": "> 50", "unit": "s⁻¹"},
      {"measurement": "calculated value for k3′ to 2′", "setting": "[6]; calculated from K and the measured rate constant, 15° C.", "value": 0.45, "unit": "h⁻¹"},
      {"measurement": "time to establish 2′/3′ equilibrium", "setting": "[6]; physiological temperatures of 37° C.", "value": "≤ 60", "unit": "min"},
      {"measurement": "ratio kcat/k2′-3′", "setting": "Sir2Af2 [7]", "value": 20}
    ]},
    {"molecule": "acetylated BSA: acetylated BSA, a non physiologic substrate", "values": [
      {"measurement": "Substrate of Sir2Af1 as reported in the literature", "setting": "Sir2Af1", "value": "is a substrate"}
    ]},
    {"molecule": "acetyl adenosine diphosphate ribose [AADPR]", "values": [
      {"measurement": "Breakdown of AADPR to ADPR and acetate", "setting": "esterase activity [8]", "value": "high esterase activity exists that can breakdown AADPR"},
      {"measurement": "Breakdown of AADPR to ADPR and acetate", "setting": "esterase activity [9]", "value": "high esterase activity exists that can breakdown AADPR"}
    ]},
    {"molecule": "CC(=O)O[C@@H]1[C@@H](COP(=O)(O)OP(=O)(O)OC[C@H]2O[C@@H](n3cnc4c(N)ncnc43)[C@H](O)[C@@H]2O)OC(O)[C@@H]1O", "note": "(stereo partly drawn) [3′-AADPR, 3′-O-acetyl-ADP-ribose]", "values": [
      {"measurement": "rate of chemical exchange of the acetyl group", "setting": "[6]; 15° C.", "value": 0.32, "unit": "h⁻¹"},
      {"measurement": "equilibrium constant K", "setting": "[6]; 15° C., HPLC peak integrations of the 2′- and 3′-isomers", "value": 1.4},
      {"measurement": "first-order rate constant for acetyl migration k3′ to 2′", "setting": "[6]; fit to exponential decay curve, 15° C.", "value": 0.32, "unit": "h⁻¹"}
    ]}
  ]
}
